From patent publication US6762174B1 (priority 1998, dated 2004)
Like-named read-outs stand apart in the source and are kept apart here.

Legend:
MOPC-315 myeloma [1] = test: MOPC-315 Myeloma study #2: β-alethine ip day 10 (1 × 10^6 tumor cells); conditions: for Mean Tumor Size: 3 mg BT alone
B16 melanoma = type: in vivo, female BDF1 mice
MOPC-315 myeloma [2] = test: MOPC-315 Myeloma study #3: β-alethine ip day 0 (3 × 10^5 tumor cells); conditions: for Animals Surviving: BT 100 ng/kg
[3] = tested on: MT-1 breast cancer xenograft; test: MT-1 breast cancer xenograft: BT by intratumor injection; type: in vivo, male nude mice; parameters: Median RTV: unit not given here; conditions: for Median RTV: BT 30 ng intratumor
Description: In a parallel experiment, a low dose of 30 ng of BT was injected directly into the tumor on days 3, 17 and 31. The T/C for RTV measured on day 35 was 50%.

[4] = tested on: MT-1 breast cancer xenograft
[5] = tested on: MT-1 breast cancer xenograft; remark: listed apart in the source

NCCC(=O)NCCSSCCNC(=O)CCN [BT, β-alethine]
Mean Tumor Size (MOPC-315 myeloma [1]; day 10): 21.5 mm
Mean Tumor Size (MOPC-315 myeloma [1]; day 14): 24 mm
Mean Tumor Size (MOPC-315 myeloma [1]; day 17): 24 mm
Mean Tumor Size (MOPC-315 myeloma [1]; day 21): (dead)
Animals Surviving (MOPC-315 myeloma [1]; BT 3 ng/kg, day 10): 10
Animals Surviving (MOPC-315 myeloma [1]; BT 3 ng/kg, day 11): 10
Animals Surviving (MOPC-315 myeloma [1]; BT 3 ng/kg, day 12): 10
Animals Surviving (MOPC-315 myeloma [1]; BT 3 ng/kg, day 13): 10
Animals Surviving (MOPC-315 myeloma [1]; BT 3 ng/kg, day 14): 7
Animals Surviving (MOPC-315 myeloma [1]; BT 3 ng/kg, day 15): 5
Animals Surviving (MOPC-315 myeloma [1]; BT 3 ng/kg, day 16): 5
Animals Surviving (MOPC-315 myeloma [1]; BT 3 ng/kg, day 17): 4
Animals Surviving (MOPC-315 myeloma [1]; BT 3 ng/kg, day 18): 1
Animals Surviving (MOPC-315 myeloma [1]; BT 3 ng/kg, day 19): 1
Animals Surviving (MOPC-315 myeloma [1]; BT 3 ng/kg, day 20): 1
Animals Surviving (MOPC-315 myeloma [1]; BT 3 ng/kg, day 21): 0
Animals Surviving (MOPC-315 myeloma [1]; BT 100 μg/kg, day 10): 10
Animals Surviving (MOPC-315 myeloma [1]; BT 100 μg/kg, day 11): 9
Animals Surviving (MOPC-315 myeloma [1]; BT 100 μg/kg, day 12): 6
Animals Surviving (MOPC-315 myeloma [1]; BT 100 μg/kg, day 13): 5
Animals Surviving (MOPC-315 myeloma [1]; BT 100 μg/kg, day 14): 5
Animals Surviving (MOPC-315 myeloma [1]; BT 100 μg/kg, day 15): 5
Animals Surviving (MOPC-315 myeloma [1]; BT 100 μg/kg, day 16): 4
Animals Surviving (MOPC-315 myeloma [1]; BT 100 μg/kg, day 17): 4
Animals Surviving (MOPC-315 myeloma [1]; BT 100 μg/kg, day 18): 1
Animals Surviving (MOPC-315 myeloma [1]; BT 100 μg/kg, day 19): 1
Animals Surviving (MOPC-315 myeloma [1]; BT 100 μg/kg, day 20): 0
Animals Surviving (MOPC-315 myeloma [1]; BT 3 mg/kg, day 10): 10
Animals Surviving (MOPC-315 myeloma [1]; BT 3 mg/kg, day 11): 9
Animals Surviving (MOPC-315 myeloma [1]; BT 3 mg/kg, day 12): 6
Animals Surviving (MOPC-315 myeloma [1]; BT 3 mg/kg, day 13): 5
Animals Surviving (MOPC-315 myeloma [1]; BT 3 mg/kg, day 14): 5
Animals Surviving (MOPC-315 myeloma [1]; BT 3 mg/kg, day 15): 5
Animals Surviving (MOPC-315 myeloma [1]; BT 3 mg/kg, day 16): 4
Animals Surviving (MOPC-315 myeloma [1]; BT 3 mg/kg, day 17): 4
Animals Surviving (MOPC-315 myeloma [1]; BT 3 mg/kg, day 18): 1
Animals Surviving (MOPC-315 myeloma [1]; BT 3 mg/kg, day 19): 1
Animals Surviving (MOPC-315 myeloma [1]; BT 3 mg/kg, day 20): 0
Animals Surviving (MOPC-315 myeloma [1]; BT 30 fg/kg, day 10): 10
Animals Surviving (MOPC-315 myeloma [1]; BT 30 fg/kg, day 11): 10
Animals Surviving (MOPC-315 myeloma [1]; BT 30 fg/kg, day 12): 9
Animals Surviving (MOPC-315 myeloma [1]; BT 30 fg/kg, day 13): 7
Animals Surviving (MOPC-315 myeloma [1]; BT 30 fg/kg, day 14): 5
Animals Surviving (MOPC-315 myeloma [1]; BT 30 fg/kg, day 15): 5
Animals Surviving (MOPC-315 myeloma [1]; BT 30 fg/kg, day 16): 1
Animals Surviving (MOPC-315 myeloma [1]; BT 30 fg/kg, day 17): 1
Animals Surviving (MOPC-315 myeloma [1]; BT 30 fg/kg, day 18): 0
Primary Tumor Size (Median RTV) (B16 melanoma; BT 30 pg/kg alone, day 0): 1
Primary Tumor Size (Median RTV) (B16 melanoma; BT 30 pg/kg alone, day 4): 1.0
Primary Tumor Size (Median RTV) (B16 melanoma; BT 30 pg/kg alone, day 7): 1.8
Primary Tumor Size (Median RTV) (B16 melanoma; BT 30 pg/kg alone, day 10): 6.0
Primary Tumor Size (Median RTV) (B16 melanoma; BT 30 pg/kg alone, day 14): 17.3
Primary Tumor Size (Median RTV) (B16 melanoma; BT 30 pg/kg alone, day 17): 62.0
Primary Tumor Size (Median RTV) (B16 melanoma; BT 30 ng/kg alone, day 0): 1
Primary Tumor Size (Median RTV) (B16 melanoma; BT 30 ng/kg alone, day 4): 1.0
Primary Tumor Size (Median RTV) (B16 melanoma; BT 30 ng/kg alone, day 7): 3.1
Primary Tumor Size (Median RTV) (B16 melanoma; BT 30 ng/kg alone, day 10): 8.1
Primary Tumor Size (Median RTV) (B16 melanoma; BT 30 ng/kg alone, day 14): 15.7
Primary Tumor Size (Median RTV) (B16 melanoma; BT 30 ng/kg alone, day 17): 32.4
Primary Tumor Size (Median RTV) (B16 melanoma; BT 30 ug/kg alone, day 0): 1
Primary Tumor Size (Median RTV) (B16 melanoma; BT 30 ug/kg alone, day 4): 1.0
Primary Tumor Size (Median RTV) (B16 melanoma; BT 30 ug/kg alone, day 7): 1.3
Primary Tumor Size (Median RTV) (B16 melanoma; BT 30 ug/kg alone, day 10): 5.5
Primary Tumor Size (Median RTV) (B16 melanoma; BT 30 ug/kg alone, day 14): 16.6
Primary Tumor Size (Median RTV) (B16 melanoma; BT 30 ug/kg alone, day 17): 30.4
Primary Tumor Size (Median RTV) (B16 melanoma; BT 30 mg/kg alone, day 0): 1
Primary Tumor Size (Median RTV) (B16 melanoma; BT 30 mg/kg alone, day 4): 1.7
Primary Tumor Size (Median RTV) (B16 melanoma; BT 30 mg/kg alone, day 7): 3.3
Primary Tumor Size (Median RTV) (B16 melanoma; BT 30 mg/kg alone, day 10): 7.5
Primary Tumor Size (Median RTV) (B16 melanoma; BT 30 mg/kg alone, day 14): 23.2
Primary Tumor Size (Median RTV) (B16 melanoma; BT 30 mg/kg alone, day 17): 34.8
Primary Tumor Size (Median RTV) (B16 melanoma; BT 30 fg/kg alone, day 0): 1
Primary Tumor Size (Median RTV) (B16 melanoma; BT 30 fg/kg alone, day 4): 1.7
Primary Tumor Size (Median RTV) (B16 melanoma; BT 30 fg/kg alone, day 7): 2.4
Primary Tumor Size (Median RTV) (B16 melanoma; BT 30 fg/kg alone, day 10): 7.0
Primary Tumor Size (Median RTV) (B16 melanoma; BT 30 fg/kg alone, day 14): 16.1
Primary Tumor Size (Median RTV) (B16 melanoma; BT 30 fg/kg alone, day 17): 41.6
Animals Surviving (MOPC-315 myeloma [2]; day 10): 10
Animals Surviving (MOPC-315 myeloma [2]; day 11): 10
Animals Surviving (MOPC-315 myeloma [2]; day 12): 10
Animals Surviving (MOPC-315 myeloma [2]; day 13): 10
Animals Surviving (MOPC-315 myeloma [2]; day 14): 7
Animals Surviving (MOPC-315 myeloma [2]; day 17): 0
survival prolonged to (MOPC-315 myeloma [2]; BT 3 mg/kg, control 16 days): 18 days
T/C for RTV ([3]; 30 ng BT into the tumor days 3, 17, 31, day 35): 50%
Median RTV ([3]; day 8): 1.27
Median RTV ([3]; day 11): 1.40
Median RTV ([3]; day 14): 1.77
Median RTV ([3]; day 17): 2.61
Median RTV ([3]; day 21): 3.74
Median RTV ([3]; day 24): 4.34
Median RTV ([3]; day 28): 4.93
Median RTV ([3]; day 31): 6.37
Median RTV ([3]; day 35): 8.01
Median Tumor Size ([4]; BT 30 ng/kg every 14 days, day 13): 0.080 cm^3
Median Tumor Size ([4]; BT 30 ng/kg every 14 days, day 16): 0.104 cm^3
Median Tumor Size ([4]; BT 30 ng/kg every 14 days, day 20): 0.176 cm^3
Median Tumor Size ([4]; BT 30 ng/kg every 14 days, day 23): 0.202 cm^3
Median Tumor Size ([4]; BT 30 ng/kg every 14 days, day 27): 0.250 cm^3
Median Tumor Size ([4]; BT 30 ng/kg every 14 days, day 30): 0.294 cm^3
Median Tumor Size ([4]; BT 30 ng/kg every 14 days, day 34): 0.298 cm^3
Median Tumor Size ([4]; BT 30 ng/kg every 14 days, day 38): 0.426 cm^3
Median Tumor Size ([4]; BT 30 ng/kg every 14 days, day 41): 0.429 cm^3
Median Tumor Size ([4]; BT 30 ng/kg every 14 days, day 45): 0.419 cm^3
RTV ([4]; BT 30 ng, day 13): 1
RTV ([4]; BT 30 ng, day 16): 1.4
RTV ([4]; BT 30 ng, day 20): 2.1
RTV ([4]; BT 30 ng, day 23): 2.3
RTV ([4]; BT 30 ng, day 27): 2.8
RTV ([4]; BT 30 ng, day 30): 3.4
RTV ([4]; BT 30 ng, day 34): 3.8
RTV ([4]; BT 30 ng, day 38): 4.5
RTV ([4]; BT 30 ng, day 41): 4.9
RTV ([4]; BT 30 ng, day 45): 6.0
Median Tumor Size ([4]; BT 30 ug/kg every 14 days, day 13): 0.055 cm^3
Median Tumor Size ([4]; BT 30 ug/kg every 14 days, day 16): 0.095 cm^3
Median Tumor Size ([4]; BT 30 ug/kg every 14 days, day 20): 0.180 cm^3
Median Tumor Size ([4]; BT 30 ug/kg every 14 days, day 23): 0.193 cm^3
Median Tumor Size ([4]; BT 30 ug/kg every 14 days, day 27): 0.325 cm^3
Median Tumor Size ([4]; BT 30 ug/kg every 14 days, day 30): 0.408 cm^3
Median Tumor Size ([4]; BT 30 ug/kg every 14 days, day 34): 0.410 cm^3
Median Tumor Size ([4]; BT 30 ug/kg every 14 days, day 38): 0.607 cm^3
Median Tumor Size ([4]; BT 30 ug/kg every 14 days, day 41): 0.696 cm^3
Median Tumor Size ([4]; BT 30 ug/kg every 14 days, day 45): 0.743 cm^3
RTV ([4]; BT 30 ug, day 13): 1
RTV ([4]; BT 30 ug, day 16): 1.4
RTV ([4]; BT 30 ug, day 20): 2.6
RTV ([4]; BT 30 ug, day 23): 3.0
RTV ([4]; BT 30 ug, day 27): 4.3
RTV ([4]; BT 30 ug, day 30): 5.2
RTV ([4]; BT 30 ug, day 34): 6.0
RTV ([4]; BT 30 ug, day 38): 9.1
RTV ([4]; BT 30 ug, day 41): 11.5
RTV ([4]; BT 30 ug, day 45): 14.0
Median Tumor Size ([4]; BT 30 fg/kg every 14 days, day 13): 0.104 cm^3
Median Tumor Size ([4]; BT 30 fg/kg every 14 days, day 16): 0.128 cm^3
Median Tumor Size ([4]; BT 30 fg/kg every 14 days, day 20): 0.213 cm^3
Median Tumor Size ([4]; BT 30 fg/kg every 14 days, day 23): 0.253 cm^3
Median Tumor Size ([4]; BT 30 fg/kg every 14 days, day 27): 0.442 cm^3
Median Tumor Size ([4]; BT 30 fg/kg every 14 days, day 30): 0.637 cm^3
Median Tumor Size ([4]; BT 30 fg/kg every 14 days, day 34): 1.062 cm^3
Median Tumor Size ([4]; BT 30 fg/kg every 14 days, day 38): 1.241 cm^3
Median Tumor Size ([4]; BT 30 fg/kg every 14 days, day 41): 1.464 cm^3
Median Tumor Size ([4]; BT 30 fg/kg every 14 days, day 45): 1.911 cm^3
RTV ([4]; BT 30 fg, day 13): 1
RTV ([4]; BT 30 fg, day 16): 1.6
RTV ([4]; BT 30 fg, day 20): 3.4
RTV ([4]; BT 30 fg, day 23): 4.4
RTV ([4]; BT 30 fg, day 27): 7.6
RTV ([4]; BT 30 fg, day 30): 9.3
RTV ([4]; BT 30 fg, day 34): 11.9
RTV ([4]; BT 30 fg, day 38): 16.1
RTV ([4]; BT 30 fg, day 41): 18.2
RTV ([4]; BT 30 fg, day 45): 19.8
T/C RTV d 49 ([5]; BT 30 mg/kg): 72%
T/C RTV d 59 ([5]; BT 30 mg/kg): 165%
effectiveness ([5]; BT 30 mg/kg alone): not effective
WBC d 46 ([5]; mouse, in vivo): 14.4 10^6/mL
